Literature values, collected in patent US7476499B2 (priority 2006, dated 2009).

Test system: poliovirus virions

Cc1cc(CCCCCCCOc2ccc(C3=NCCO3)cc2)on1 [WIN-51711, Disoxaril]
mode of action on poliovirus: prevents the uncoating of the viral genome after viral cell entry
